Source: article PMC9505067, “Synthesis of Hydantoin Androgen Receptor Antagonists and Study on Their Antagonistic Activity” (Molecules, 2022)
Read-outs that look alike come from different tables or passages of the source.

What was measured:
LNCaP cells = experiment: Anti-proliferative activity assay in LNCaP cells (CCK-8); assay type: cell-based; conditions: 72 h treatment, normalized relative to DMSO-control treated cells, means ± SD, concentration not given
Protocol: We performed experiments accordingly to detect the anti-proliferative effect of compounds using the prostate cancer LNCaP cell line. The measurement of proliferative activity was performed after treatment with a concentration range of each compound for 72 h.
LNCaP cells were cultured in RPMI-1640 medium (Life Technologies, Carlsbad, CA, USA) supplemented with 10% (v/v) fetal bovine serum, 1% sodium pyruvate and 1% L-Glutamine. The cells were seeded into 96-well plates at a density of 8 × 10^4 cells per well. After 24 h incubation, the culture medium was removed and the cells were cultivated in the medium supplemented with 2% (v/v) fetal bovine serum for 2 days and then treated with different concentrations of test compounds for 3 days. Cell viability was measured with the CCK-8 kit (Dojindo).

androgen receptor (AR) = biological target: T1, androgen receptor (AR) (Homo sapiens, UniProt P10275); experiment: AR antagonist luciferase gene reporter assay (AR plasmid pSVAR0 + MMTV-Luc, DHT at EC80)
T1 sequence (P10275 1-920): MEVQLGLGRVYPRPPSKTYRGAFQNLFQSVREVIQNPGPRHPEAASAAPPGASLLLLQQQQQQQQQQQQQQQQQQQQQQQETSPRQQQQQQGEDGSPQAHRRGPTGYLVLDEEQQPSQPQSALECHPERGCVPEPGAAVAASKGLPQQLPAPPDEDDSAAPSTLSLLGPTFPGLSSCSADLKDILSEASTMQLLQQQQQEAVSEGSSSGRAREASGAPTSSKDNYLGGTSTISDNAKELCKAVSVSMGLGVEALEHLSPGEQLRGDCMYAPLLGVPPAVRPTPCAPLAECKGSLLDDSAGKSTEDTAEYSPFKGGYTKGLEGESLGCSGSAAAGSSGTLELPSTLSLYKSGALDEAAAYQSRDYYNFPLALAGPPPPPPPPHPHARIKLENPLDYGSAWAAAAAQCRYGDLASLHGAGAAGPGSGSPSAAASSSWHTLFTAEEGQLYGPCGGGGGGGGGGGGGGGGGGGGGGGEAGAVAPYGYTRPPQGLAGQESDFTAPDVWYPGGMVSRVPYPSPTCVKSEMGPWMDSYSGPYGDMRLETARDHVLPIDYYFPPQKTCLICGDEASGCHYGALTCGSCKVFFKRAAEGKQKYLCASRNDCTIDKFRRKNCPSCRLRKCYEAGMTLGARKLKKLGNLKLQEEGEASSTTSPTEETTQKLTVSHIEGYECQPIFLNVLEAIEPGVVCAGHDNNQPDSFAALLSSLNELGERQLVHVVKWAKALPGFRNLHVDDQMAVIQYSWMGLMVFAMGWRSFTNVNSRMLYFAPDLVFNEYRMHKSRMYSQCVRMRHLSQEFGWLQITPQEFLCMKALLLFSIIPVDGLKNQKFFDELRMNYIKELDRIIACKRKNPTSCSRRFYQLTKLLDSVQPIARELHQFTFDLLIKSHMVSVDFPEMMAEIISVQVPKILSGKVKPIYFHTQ

[1] = Antagonist Activity in CV-1 IC50, luciferase reporter in AR-transfected cells, DHT at EC80, 24 h incubation, means ± SD of three independent experiments

## CC1(CO)C(=O)N(c2ccc(C#N)c(C(F)(F)F)c2)C(=S)N1c1ccc(F)cc1 (stereo not drawn) [6c, 4-(3-(4-fluorophenyl)-4-(hydroxymethyl)-4-methyl-5-oxo-2-thioxoimidazolidin-1-yl)-2-(trifluoromethyl)benzonitrile]
LNCaP cells
  Proliferative/Anti-Proliferative Activity in LNCAP: 118.7 ± 22.1%
Androgen receptor (AR)
  Antagonist Activity in CV-1 Efficacy: 91 ± 5.9%
Androgen receptor (AR); [1]
  IC50: 0.0462 ± 0.0041 µM
other
  melting point: 231 to 233 °C

## CNC(=O)c1ccc(N2C(=S)N(c3ccc(C#N)c(C(F)(F)F)c3)C(=O)C2(C)C)cc1F [Enzalutamide, reference compound]
LNCaP cells
  Proliferative/Anti-Proliferative Activity in LNCAP: 71.4 ± 7.8%

## CC1(CO)C(=O)N(c2cnc(C#N)c(C(F)(F)F)c2)C(=S)N1c1ccc(F)cc1 (stereo not drawn) [19b, 5-(3-(4-fluorophenyl)-4-(hydroxymethyl)-4-methyl-5-oxo-2-thioxoimidazolidin-1-yl)-3-(trifluoromethyl)picolinonitrile]
LNCaP cells
  Proliferative/Anti-Proliferative Activity in LNCAP: 65.7 ± 20.5%
Androgen receptor (AR)
  IC50: 0.0325 ± 0.0221 µM
Androgen receptor (AR); luciferase reporter in AR-transfected cells, DHT at EC80, 24 h, enzalutamide = 100, means ± SD of three independent experiments
  Antagonist Activity in CV-1 Efficacy: 75.55 ± 11.87%
other
  melting point: 181 to 183 °C

## CC1(CO)C(=O)N(c2ccc(C#N)c(C(F)(F)F)c2)C(=S)N1c1ccccc1 (stereo not drawn) [6a, 4-(4-(hydroxymethyl)-4-methyl-5-oxo-3-phenyl-2-thioxoimidazolidin-1-yl)-2-(trifluoromethyl)benzonitrile]
LNCaP cells
  Proliferative/Anti-Proliferative Activity in LNCAP: 149.3 ± 14.2%
Androgen receptor (AR)
  Antagonist Activity in CV-1 Efficacy: 101 ± 6.7%
Androgen receptor (AR); [1]
  IC50: 0.0468 ± 0.0062 µM
other
  melting point: 216 to 219 °C

## CC1(CO)C(=O)N(c2cnc(C#N)c(C(F)(F)F)c2)C(=S)N1c1ccccc1 (stereo not drawn) [19a, 5-(4-(hydroxymethyl)-4-methyl-5-oxo-3-phenyl-2-thioxoimidazolidin-1-yl)-3-(trifluoromethyl)picolinonitrile]
LNCaP cells
  Proliferative/Anti-Proliferative Activity in LNCAP: 122.8 ± 16.8%
Androgen receptor (AR)
  Antagonist Activity in CV-1 Efficacy: 61.27 ± 12.44%
Androgen receptor (AR); [1]
  IC50: 0.0184 ± 0.00865 µM
other
  melting point: 203 to 205 °C

## C[C@]12CCC(=O)C[C@@H]1CC[C@@H]1[C@@H]2CC[C@]2(C)[C@@H](O)CC[C@@H]12 [DHT, reference compound]
LNCaP cells
  Proliferative/Anti-Proliferative Activity in LNCAP: 186.7 ± 5.6%

## CN1CCC(Oc2ccc(N3C(=S)N(c4ccc(C#N)c(C(F)(F)F)c4)C(=O)C3(C)CO)cc2)CC1 (stereo not drawn) [6l, 4-(4-(hydroxymethyl)-4-methyl-3-(4-((1-methylpiperidin-4-yl)oxy)phenyl)-5-oxo-2-thioxoimidazolidin-1-yl)-2-(trifluoromethyl)benzonitrile]
Androgen receptor (AR)
  Antagonist Activity in CV-1 Efficacy: 92 ± 2.9%
Androgen receptor (AR); [1]
  IC50: 0.337 µM
other
  melting point: 117 to 119 °C

## CC1(CO)C(=O)N(c2ccc(C#N)c(C(F)(F)F)c2)C(=O)N1c1ccc(O)cc1 (stereo not drawn) [11b, 4-(4-(hydroxymethyl)-3-(4-hydroxyphenyl)-4-methyl-2,5-dioxoimidazolidin-1-yl)-2-(trifluoromethyl)benzonitrile]
Androgen receptor (AR)
  Antagonist Activity in CV-1 Efficacy: 100 ± 3.4%
Androgen receptor (AR); [1]
  IC50: 2.36 ± 1.71 µM
other
  melting point: 110 to 112 °C

## CC1(CO)C(=O)N(c2ccc(C#N)c(C(F)(F)F)c2)C(=O)N1c1ccc(C(F)(F)F)cc1 (stereo not drawn) [7i, 4-(4-(hydroxymethyl)-4-methyl-2,5-dioxo-3-(4-(trifluoromethyl)phenyl)imidazolidin-1-yl)-2-(trifluoromethyl)benzonitrile]
Androgen receptor (AR)
  Antagonist Activity in CV-1 Efficacy: 99 ± 12.5%
Androgen receptor (AR); [1]
  IC50: 0.149 ± 0.0304 µM
other
  melting point: 161 to 163 °C

## Cc1ccc(N2C(=S)N(c3ccc(C#N)c(C(F)(F)F)c3)C(=O)C2(C)CO)cc1 (stereo not drawn) [6b, 4-(4-(hydroxymethyl)-4-methyl-5-oxo-2-thioxo-3-(p-tolyl)imidazolidin-1-yl)-2-(trifluoromethyl)benzonitrile]
Androgen receptor (AR)
  Antagonist Activity in CV-1 Efficacy: 86 ± 4.2%
Androgen receptor (AR); [1]
  IC50: 0.549 ± 0.0478 µM
other
  melting point: 190 to 192 °C
